The values below come from patent publication US20260265694A1, “USE OF A VITISIN COMPOUND FOR THE PRODUCTION OF HEMATOPOIETIC CELLS” (ETABLISSEMENT FRANCAIS DU SANG, priority 2022, published 2026).

Assay [1] concerns BFU-E and CFU-E erythrocyte progenitors from placental blood CD34+ cells. Kind of assay: CFC clonogenic assay of BFU-E and CFU-E during phase 1 of ERYTHRO 2. It is filed as cell-based, human. The following applies: 10 μM. Here is the method: • CTRL condition: cells are cultured for 7 days in the absence of vitisin B. • TEST condition: cells are cultured for 7 days in the presence of vitisin B at 10 μM.
To this end, the CFC (Colony Forming Cells) test is used. Committed progenitors are capable of generating colonies after culture in a semisolid medium composed of methylcellulose and supplemented with cytokines. Thus, committed progenitors (here BFU-Es and CFU-Es) produced during erythrocyte cultures can be counted.
This analysis of BFU-E and CFU-E production was performed only during phase 1 of PROTOCOL 2. Cells grown and harvested on days 4, 8 and 11 of phase 1 were seeded in a ready-to-use cytokine-supplemented methylcellulose H4034 kit (Stem Cell Technology, Meylan, France) at concentrations of 150 cells/[…] H4034 for day 4 and 300 cells/250

In assay [2] the test system is CD34+ cells from peripheral blood. Kind of assay: AMPLIFICATION PROTOCOL: ex vivo amplification of hematopoietic progenitors. It is filed as cell-based, human. As to the method: This is a strategy for the amplification of hematopoietic progenitors. The culture is formed as follows: CD34^+ cells from peripheral blood are isolated (as indicated in section II.A.1), and cultured for 12 days in Stem Span II medium (Stem Cell Technologies) supplemented with cytokines: SCF 100 ng/mL, FLT3-L 100 ng/mL, TPO 20 ng/mL, G-CSF 10 ng/mL. The amplification product is analyzed by quantification of proliferation (count on Malassez slides) and phenotypic analysis of CD34^+ cell subpopulations by flow cytometry. […] Vitisin B is also compared with the following stilbene-type molecules at 10 μM concentration: Resveratrol, Pallidol, E-Viniferin, Ampelopsin, Oxyresveratrol, Picateatannol, Gnetol
At the end of the hematopoietic cell amplification protocol, an analysis of cell proliferation and amplification of immature and committed cell populations is performed.
Cell proliferation is evaluated by counting cells on Malassez slides with Trypan blue exclusion of dead cells.
The amplification of cell populations is based on a phenotypic analysis relating to the evolution of the expression of membrane markers CD34 and CD133 by flow cytometry. These markers make it possible to define more or less immature cell populations organized hierarchically as follows: CD34^+CD133^+->CD34^+CD133^neg->CD34^negCD133^neg. To this end, cells are incubated with anti-CD34 (1:100,000) (BD Pharmingen) and anti-CD133 (1:100,000) (BD Pharmingen) antibodies for 15 minutes. The cells are then rinsed with a PBS solution and centrifuged (430×g, 10 min, 4° C.). After resuspension of the cell pellets in PBS, the cells are analyzed by flow cytometry (FACSCantoll, Becton Dickinson, San Jose, CA).
The proportions of each phenotypic population thus observed and the total amount of cells make it possible to calculate the rate of amplification of the most immature cells (CD34^+CD133+) compared with the amplification of more committed progenitors (CD34^+CD133^neg and CD34^negCD133^neg).

Consider `Oc1ccc(C2Oc3ccc(/C=C/c4cc(O)cc5c4[C@H](c4cc(O)cc(O)c4)[C@@H](c4ccc(O)cc4)O5)cc3C2c2cc(O)cc3c2C(c2cc(O)cc(O)c2)C(c2ccc(O)cc2)O3)cc1` (stereo in doubt) [vitisin B, 5-[(2R,2'S,3R,3'S)-5-[(1E)-2-[(2S,3S)-3-(3,5-Dihydroxyphenyl)-2,3-dihydro-6-hydroxy-2-(4-hydroxyphenyl)-4-benzofuranyl]ethenyl]-2,2′,3,3′-tetrahydro-6′-hydroxy-2,2′-bis(4-hydroxyphenyl)[3,4′-bibenzofuran]-3′-yl]-1,3-benzenediol], for which the “appearance of primitive erythrocyte progenitors (BFU-Es)” value in assay [1] (clonogenic assay at D4, D8, D11, FIG. 7A) is on record as “accelerated the appearance”. The “appearance of more differentiated progenitors (CFU-Es)” value in assay [1] (clonogenic assay at D4, D8, D11, FIG. 7B) is on record as “accelerated the appearance”. Besides, the “amplification of the total amount of progenitors of the CD34+ phenotype” value in assay [2] (10 μM, 12-day culture, FIG. 1) is “up to 250%”. The “amplification of the CD34+CD133neg subpopulation (erythrocyte potential)” value in assay [2] (10 μM, FIG. 1) is given as “induces amplification”. Moreover, the “effect on the proportion and total amount of CD34+CD133neg cells” value in assay [2] (10 μM, FIG. 2) was “convincing effect”. Moreover, the “effect of increasing the dose on total CD34+ and CD34+CD133neg populations” value in assay [2] (50 μM versus 10 μM) was “no additional effect”.
